{"source": "paper PMC2739411", "about": "(Anesthesiology, 2009)", "target": "γ-aminobutyric acid type A (GABAA) receptor α1β2γ2L (Homo sapiens, UniProt P14867+P47870)", "sequence (P47870 26-512)": "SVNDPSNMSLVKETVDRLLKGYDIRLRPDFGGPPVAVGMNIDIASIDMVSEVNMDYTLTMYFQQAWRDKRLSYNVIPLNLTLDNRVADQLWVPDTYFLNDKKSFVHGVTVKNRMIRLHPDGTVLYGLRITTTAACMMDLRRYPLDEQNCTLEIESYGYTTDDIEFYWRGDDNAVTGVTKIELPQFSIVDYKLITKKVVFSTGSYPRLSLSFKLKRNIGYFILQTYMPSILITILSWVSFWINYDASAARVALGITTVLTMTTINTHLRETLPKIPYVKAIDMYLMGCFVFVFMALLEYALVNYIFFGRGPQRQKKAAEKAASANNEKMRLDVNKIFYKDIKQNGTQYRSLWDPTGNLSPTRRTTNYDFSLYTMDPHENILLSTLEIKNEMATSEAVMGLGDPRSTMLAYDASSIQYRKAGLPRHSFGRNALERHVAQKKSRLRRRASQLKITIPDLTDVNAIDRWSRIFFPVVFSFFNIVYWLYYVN", "sequence (P14867 28-456)": "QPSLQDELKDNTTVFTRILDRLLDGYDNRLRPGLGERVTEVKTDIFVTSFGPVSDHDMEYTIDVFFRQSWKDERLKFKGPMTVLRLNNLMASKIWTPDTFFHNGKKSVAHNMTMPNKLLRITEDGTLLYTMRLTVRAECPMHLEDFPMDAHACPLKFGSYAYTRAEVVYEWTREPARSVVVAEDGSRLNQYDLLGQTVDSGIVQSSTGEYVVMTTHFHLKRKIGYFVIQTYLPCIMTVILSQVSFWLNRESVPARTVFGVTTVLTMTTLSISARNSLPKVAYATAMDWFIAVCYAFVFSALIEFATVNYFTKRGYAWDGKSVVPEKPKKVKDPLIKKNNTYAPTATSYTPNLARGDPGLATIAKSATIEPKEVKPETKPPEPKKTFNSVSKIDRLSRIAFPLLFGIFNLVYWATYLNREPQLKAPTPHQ", "sequence (P18507 40-475 partner)": "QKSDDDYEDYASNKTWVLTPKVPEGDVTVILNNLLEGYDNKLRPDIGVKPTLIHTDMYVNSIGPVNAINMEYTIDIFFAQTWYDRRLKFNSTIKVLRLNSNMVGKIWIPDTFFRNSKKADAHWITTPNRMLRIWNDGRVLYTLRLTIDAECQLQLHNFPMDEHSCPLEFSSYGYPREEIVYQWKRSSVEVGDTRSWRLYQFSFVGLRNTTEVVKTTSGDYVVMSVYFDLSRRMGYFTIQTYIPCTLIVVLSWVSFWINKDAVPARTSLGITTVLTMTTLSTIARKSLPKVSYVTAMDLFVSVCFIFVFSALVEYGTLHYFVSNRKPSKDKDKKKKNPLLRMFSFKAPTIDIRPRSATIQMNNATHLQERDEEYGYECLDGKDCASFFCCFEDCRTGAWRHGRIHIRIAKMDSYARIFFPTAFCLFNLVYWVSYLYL", "experiment": "two-electrode voltage clamp in oocytes", "assay_type": "cell-based", "conditions": "read-out: % enhancement of EC5-10 GABA current at 8 μM"}
{"smiles": "COC(=O)CCOC(=O)c1cncn1[C@H](C)c1ccccc1", "note": "[compound 3, (R)-3-methoxy-3-oxopropyl1-(1-phenylethyl)-1H-imidazole-5-carboxylate]", "values": [{"measurement": "activation at 8 µM", "result": "450 ± 130", "unit": "%"}]}
